Measurements from the supplement of paper PMC10307832.

Compound: CC(C)CCN1c2nc(Nc3cc(F)c(O)c(F)c3)ncc2N(C)C(=O)C1C [BI-D1870] + Nc1nc2[nH]cc(CCc3ccc(C(=O)N[C@@H](CCC(=O)O)C(=O)O)cc3)c2c(=O)[nH]1 [Pemetrexed] (partner 0.2 µM)
Test: relative viability (nuclei count vs DMSO), 5 days (fraction); higher = more cells survive
Conditions: first compound 4 µM
Method in brief: (§1)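 Relative viability is defined as nuclei in treated wells over nuclei in vehicle wells. Duplicate plates were run and medians reported. Lung cancer cell lines in 1536-well plates were dosed by pin tool one day after seeding, with one drug or with a fixed anchor-drug dose plus five library-drug doses (not always all listed) in √10 steps, and nuclei were counted after 5 days.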

First: NCI-H1755
Second: NCI-H2023
The relative viability of the first is higher: 0.408 for the first, 0.149 for the second.

Compared with HCC-15, PC-14 is lower in relative viability: 0.187 for the first, 0.124 for the second.

In the case of EKVX, the relative viability is reported as 0.391.

Compound: O=c1ncccn1[C@@H]1O[C@H](CO)[C@@H](O)[C@H]1O [Zebularine] + CC(C)C[C@H](NC(=O)[C@H](Cc1ccccc1)NC(=O)c1cnccn1)B(O)O [Bortezomib] (partner 0.002 µM)
Test: as above
Conditions: first compound 1 µM
Method in brief: as §1

First: HOP-62
Second: LU99A
The relative viability of the first is lower: 0.593 for the first, 1.39 for the second.

Compared with BEN, HARA is higher in relative viability: 0.938 for the first, 1.14 for the second.

Compared with HCC-78, NCI-H322M is higher in relative viability: 0.497 for the first, 1.19 for the second.

Compared with LCLC-97TM1, NCI-H2009 is lower in relative viability: 1.41 for the first, 1.04 for the second.

Going from A-427 to NCI-H441, the relative viability falls from 1.12 to 0.355.

First: NCI-H661
Second: NCI-H1734
The relative viability of the first is lower: 0.729 for the first, 0.988 for the second.

Compared with NCI-H460, NCI-H2347 is lower in relative viability: 1.34 for the first, 0.768 for the second.

First: SK-LU-1
Second: 201T
The relative viability of the first is higher: 1.3 for the first, 1.13 for the second.

First: NCI-H1915
Second: HCC-827
The relative viability of the first is lower: 1.11 for the first, 1.12 for the second.

First: LXF-289
Second: NCI-H23
The relative viability of the first is lower: 1.04 for the first, 1.15 for the second.

First: NCI-H647
Second: CAL-12T
The relative viability of the first is higher: 1.27 for the first, 1.22 for the second.

Going from NCI-H1651 to EPLC-272H, the relative viability rises from 0.979 to 1.

First: NCI-H2228
Second: NCI-H1355
The relative viability of the first is lower: 1.17 for the first, 1.3 for the second.

First: NCI-H3122
Second: NCI-H1437
The relative viability of the first is higher: 1.04 for the first, 0.595 for the second.

Going from NCI-H1755 to NCI-H2023, the relative viability rises from 1.03 to 1.08.

Compared with HCC-15, PC-14 is lower in relative viability: 1.19 for the first, 1.05 for the second.

In the case of EKVX, the relative viability is reported as 1.27.

Same assay, conditions: first compound 3.162 µM

Compared with HOP-62, LU99A is higher in relative viability: 0.741 for the first, 1.08 for the second.

Going from BEN to HARA, the relative viability rises from 0.714 to 1.11.

First: HCC-78
Second: NCI-H322M
The relative viability of the first is lower: 0.512 for the first, 1.29 for the second.

Going from LCLC-97TM1 to NCI-H2009, the relative viability rises from 0.627 to 0.928.

Compared with A-427, NCI-H441 is lower in relative viability: 0.899 for the first, 0.278 for the second.

First: NCI-H661
Second: NCI-H1734
The relative viability of the first is lower: 0.824 for the first, 0.86 for the second.

First: NCI-H460
Second: NCI-H2347
The relative viability of the first is higher: 1.07 for the first, 0.925 for the second.

First: SK-LU-1
Second: 201T
The relative viability of the first is lower: 0.913 for the first, 1.1 for the second.

Compared with NCI-H1915, HCC-827 is higher in relative viability: 0.913 for the first, 1.06 for the second.

Compared with LXF-289, NCI-H23 is higher in relative viability: 0.993 for the first, 1.06 for the second.

First: NCI-H647
Second: CAL-12T
The relative viability of the first is lower: 0.749 for the first, 1.01 for the second.

Going from NCI-H1651 to NCI-H2228, the relative viability falls from 0.935 to 0.924.

First: NCI-H1355
Second: NCI-H3122
The relative viability of the first is higher: 1.2 for the first, 0.991 for the second.

First: NCI-H1437
Second: NCI-H1755
The relative viability of the first is lower: 0.474 for the first, 0.952 for the second.

First: NCI-H2023
Second: HCC-15
The relative viability of the first is lower: 0.932 for the first, 1.03 for the second.

First: PC-14
Second: EKVX
The relative viability of the first is lower: 0.743 for the first, 1.05 for the second.

Same assay, conditions: first compound 10 µM

Compared with HOP-62, LU99A is higher in relative viability: 0.547 for the first, 0.638 for the second.

First: BEN
Second: HCC-78
The relative viability of the first is lower: 0.345 for the first, 0.407 for the second.

Compared with NCI-H322M, LCLC-97TM1 is lower in relative viability: 1.06 for the first, 0.473 for the second.

Going from NCI-H2009 to A-427, the relative viability falls from 0.876 to 0.665.

Compared with NCI-H441, NCI-H661 is higher in relative viability: 0.352 for the first, 0.709 for the second.

Compared with NCI-H1734, NCI-H460 is lower in relative viability: 0.463 for the first, 0.241 for the second.

First: NCI-H2347
Second: SK-LU-1
The relative viability of the first is higher: 0.594 for the first, 0.576 for the second.

First: 201T
Second: NCI-H1915
The relative viability of the first is higher: 1 for the first, 0.433 for the second.

Compared with HCC-827, LXF-289 is higher in relative viability: 0.875 for the first, 0.94 for the second.

Going from NCI-H647 to NCI-H1651, the relative viability rises from 0.181 to 0.582.

Compared with NCI-H2228, NCI-H1355 is higher in relative viability: 0.46 for the first, 0.844 for the second.

First: NCI-H3122
Second: NCI-H1755
The relative viability of the first is higher: 1 for the first, 0.739 for the second.

First: NCI-H2023
Second: HCC-15
The relative viability of the first is higher: 0.749 for the first, 0.723 for the second.

Cell Line PC-14 has a relative viability of 0.147.

Same assay, conditions: first compound 31.62 µM

First: HOP-62
Second: LU99A
The relative viability of the first is lower: 0.201 for the first, 0.421 for the second.

Going from BEN to HARA, the relative viability rises from 0.372 to 1.09.

Compared with HCC-78, NCI-H322M is higher in relative viability: 0.42 for the first, 1.17 for the second.

Compared with LCLC-97TM1, NCI-H2009 is higher in relative viability: 0.253 for the first, 0.609 for the second.

Compared with A-427, NCI-H441 is lower in relative viability: 0.381 for the first, 0.235 for the second.

Compared with NCI-H661, NCI-H1734 is lower in relative viability: 0.716 for the first, 0.379 for the second.

Going from NCI-H460 to NCI-H2347, the relative viability rises from 0.278 to 0.582.

Going from SK-LU-1 to 201T, the relative viability rises from 0.737 to 1.15.

Going from NCI-H1915 to HCC-827, the relative viability falls from 1.09 to 0.773.

Going from LXF-289 to NCI-H23, the relative viability rises from 0.748 to 0.918.

Going from NCI-H647 to CAL-12T, the relative viability rises from 0.175 to 0.68.

First: NCI-H1651
Second: EPLC-272H
The relative viability of the first is lower: 0.947 for the first, 1.07 for the second.

Going from NCI-H2228 to NCI-H1355, the relative viability falls from 0.837 to 0.493.

First: NCI-H3122
Second: NCI-H1437
The relative viability of the first is higher: 1.05 for the first, 0.566 for the second.

Going from NCI-H1755 to NCI-H2023, the relative viability falls from 1.08 to 0.646.

Going from HCC-15 to PC-14, the relative viability falls from 0.962 to 0.115.

EKVX showed a relative viability of 0.88.

Same assay, conditions: first compound 100 µM

Going from HOP-62 to LU99A, the relative viability rises from 0.143 to 0.199.

Going from BEN to HARA, the relative viability rises from 0.265 to 0.86.

First: HCC-78
Second: NCI-H322M
The relative viability of the first is lower: 0.355 for the first, 0.824 for the second.

First: LCLC-97TM1
Second: NCI-H2009
The relative viability of the first is lower: 0.217 for the first, 0.339 for the second.

Going from A-427 to NCI-H441, the relative viability falls from 0.247 to 0.245.

First: NCI-H661
Second: NCI-H1734
The relative viability of the first is higher: 0.785 for the first, 0.346 for the second.

First: NCI-H460
Second: NCI-H2347
The relative viability of the first is lower: 0.126 for the first, 0.542 for the second.

First: SK-LU-1
Second: 201T
The relative viability of the first is lower: 0.502 for the first, 1.11 for the second.

First: NCI-H1915
Second: HCC-827
The relative viability of the first is higher: 0.97 for the first, 0.506 for the second.

First: LXF-289
Second: NCI-H23
The relative viability of the first is lower: 0.301 for the first, 0.783 for the second.

Going from NCI-H647 to CAL-12T, the relative viability rises from 0.204 to 0.483.

First: NCI-H1651
Second: EPLC-272H
The relative viability of the first is lower: 0.609 for the first, 0.836 for the second.

First: NCI-H2228
Second: NCI-H1355
The relative viability of the first is higher: 0.354 for the first, 0.335 for the second.

First: NCI-H3122
Second: NCI-H1437
The relative viability of the first is higher: 1.08 for the first, 0.258 for the second.

First: NCI-H1755
Second: NCI-H2023
The relative viability of the first is higher: 0.415 for the first, 0.273 for the second.

HCC-15 showed a relative viability of 0.456.
